From EP1581471B9, “CYCLOPENTENONE DERIVATIVES FOR CANCER THERAPY” (Dabur Research Foundation, priority 2002, dated 2004)
Values after ≈ are worked out from the molar mass of the structure shown.

Key:
tubulin = tubulin polymerization in vitro (absorbance at 340 nm); type: biochemical; conditions: tubulin 1mg/ml, 37°C, pH 6.9; read-out: IC50 values (uM) for inhibition of Tubulin Polymerization
Method: The cyclopentenone derivatives were checked for their effects on tubulin polymerization in vitro. Briefly, the tubulin assembly reaction was performed at 37°C in buffer containing 80 mM PIPES, 1mM EGTA, 1.0 mM GTP and 1mM MgCl2 (pH 6.9) at a tubulin concentration of 1mg/ml in the presence or absence of the cyclopentenone derivatives. The final concentration of the cyclopentenone derivatives in the reaction mixture varied from 1-5uM. The derivatives were dissolved in 0.1% DMSO. The control experiments were carried out with 0.1% DMSO. The tubulin polymerization was followed by measurement of the absorbance of the solution at 340 nm every 30 seconds. […] Thus the cyclopentenone derivatives mediated their observed anticancer activities by tubulin depolymerization.

PTC = assay: three day MTT cytotoxicity assay; type: cell-based, human; conditions: PTC (colon), 72 hours
Method: (§1) A number of the cyclopentenone derivatives were tested for cytotoxicity against 9 human tumor cell lines. Briefly, a three day MTT cytotoxicity assay was performed, which is based on the principle of uptake of MTT (3-(4,5-dimethylthiazol-2-yl)-2,5-diphenyl tetrazolium bromide), a tetrazolium salt, by the metabolically active cells where it is metabolized by active mitochondria into a blue colored formazan product that is read spectrophotometrically. MTT was dissolved in phosphate buffered saline with a pH of 7.4 to obtain an MTT concentration of 5mg/ml; the resulting mixture was filtered through a 0.22 micron filter to sterilize and remove a small amount of insoluble residue. For each type of tumor cell, 10000 to 15000 cells were seeded in a 96-well culture plate and incubated with the individual cyclopentenone derivatives in a CO2 incubator for a total of 72 hours. Control cells not treated with the cyclopentenone derivatives were similarly incubated. The assay was terminated by adding 100 ug (20 ul) of MTT to each well, then incubating for additional one hour, and finally adding 50 ul of 10% SDS-0.01N HCl to each well to lyse the cells and dissolve formazan. After incubating for one hour, the plate was read spectrophotometrically at 540 nm and the percentage of cytotoxicity calculated using the following formula: Cytotoxicity percentage = 100 × [1-(X/R1)], [formula] where X = (absorbance of treated sample at 540 nm) - (absorbance of blank at 540 nm) R1 = absorbance of control sample at 540 nm.
(§2) The ED50 Values of the cytotoxicity defined as the concentration at which 50 % of the cells are killed in vitro was calculated for each cell line treated with each of the cyclopentenone derivatives.
(§3) The cell lines are PTC (all colon), MOLT-4 (leukemia), SW620 […], DU145 (prostate), KB (oral squamous cell), L132 (lung), MIAPaCa2 (Pancreas), Hep2, (larynx), PA-1 (ovary), HuTu80 (duodenum), ECV 304 (endothelial), and 293 (kidney).

ECV 304 = assay: three day MTT cytotoxicity assay; type: cell-based, human; conditions: ECV 304 (endothelial), 72 hours
Method: as §1, §2, §3

MIAPaCa2 = assay: three day MTT cytotoxicity assay; type: cell-based, human; conditions: MIAPaCa2 (Pancreas), 72 hours
Method: as §1, §2, §3

DU145 = assay: three day MTT cytotoxicity assay; type: cell-based, human; conditions: DU145 (prostate), 72 hours
Method: as §1, §2, §3

293 = assay: three day MTT cytotoxicity assay; type: cell-based, human; conditions: 293 (kidney), 72 hours
Method: as §1, §2, §3

L132 = assay: three day MTT cytotoxicity assay; type: cell-based, human; conditions: L132 (lung), 72 hours
Method: as §1, §2, §3

SW620 = assay: three day MTT cytotoxicity assay; type: cell-based, human; conditions: 72 hours
Method: as §1, §2, §3

HuTu80 = assay: three day MTT cytotoxicity assay; type: cell-based, human; conditions: HuTu80 (duodenum), 72 hours
Method: as §1, §2, §3

KB = assay: three day MTT cytotoxicity assay; type: cell-based, human; conditions: KB (oral squamous cell), 72 hours
Method: as §1, §2, §3

Hep2 = assay: three day MTT cytotoxicity assay; type: cell-based, human; conditions: Hep2 (larynx), 72 hours
Method: as §1, §2, §3

VEGF = VEGF levels in ECV304 endothelial cells (ELISA); type: cell-based, Human; conditions: 5ug/ml, 4 hours
Method: Human endothelial cells (ECV304) were plated at the density of 8-10 x10^5 cells per 2 ml in a six well plate. After an overnight incubation of cells at 37°C, cyclopentenone derivatives at a concentration of 5ug/ml was added to the wells. The untreated wells served as controls. The plates were incubated for 4 hours at 37°C. The medium was collected from all the wells (control and treated) and spun down at 2000 r.p.m to remove the cellular material. The supernatant was collected and used for ELISA (Quantikine human VEGF, R&D Systems). The assay employs the quantitative sandwich enzyme immunoassay technique. A monoclonal antibody specific for VEGF has been pre-coated onto a microplate. Standards and samples were pipetted into the wells and VEGF present was bound by the immobilized antibody. After washing away the unbound substances, an enzyme-linked polyclonal antibody specific for VEGF was added to the wells. Following a wash to remove any unbound antibody-enzyme reagent, a substrate solution was added to the wells and color developed in proportion to the amount of VEGF bound in the initial step. The optical density of each well was determined within 30 minutes using a microplate reader set to 450nm and reference wavelength at 540nm. The VEGF levels were inhibited by the addition of cyclopentenone derivatives in vitro.

Caspase-3 = Caspase-3 induction in KB cells (colorimetric substrate DEVD-pNA); type: cell-based, Human; conditions: 5ug/ml
Method: Human squamous cell carcinoma (KB) were plated in a 25 cm^2 flask. When cultures achieved confluence, the cyclopentenone derivative of structure 20 was added to the cells. The final concentration of derivative of the structure 20 in the flask was 5ug/ml. The untreated wells served as controls. The cells were incubated with the drug for 2 different time points of 6 and 16 hours at 37°C. The cells were collected by centrifugation at 2000 r.p.m. for 10 minutes. The supernatant was gently removed and discarded while Lysis Buffer was added to the cell pellet (25ul of lysis buffer per […]). The cell lysate was incubated on ice for 10 minutes and centrifuged at 10,000-x g for 1 minute. The supernatant was transferred to a new tube and kept on ice. 50ul of the cell lysate was added in a 96 well plate. To this was added 2x Reaction Buffer. Prior to using reaction buffer, 10ul of fresh DTT stock per 1 ml of 2x Reaction Buffer was added. To each well 5ul of Caspase-3 colorimetric substrate (DEVD-pNA) was added. The plate was incubated for 1-2 hours at […]. and read at 405nm.
The level of caspase enzymatic activity in the cell lysate is directly proportional to the absorbance at 405nm. […]

MOLT-4 = assay: three day MTT cytotoxicity assay; type: cell-based, human; conditions: MOLT-4 (leukemia), 72 hours
Method: as §1, §2, §3

PA-1 = assay: three day MTT cytotoxicity assay; type: cell-based, human; conditions: PA-1 (ovary), 72 hours
Method: as §1, §2, §3

PTC tumor xenografts = assay: In vivo anti-tumor activity on PTC tumor xenografts; set-up: species or system Balb/c athymic mice; conditions: intravenously 0.5 mg/100 µL once a day for 14 days, day 23, compared to controls
Method: PTC tumor xenografts were grown in Balb/c athymic mice by subcutaneous inoculation of a single cell suspension of PTC cells (15 X 10^6 cells/100 µL). The tumor bearing animals were divided into 2 groups of three animals each including one group comprising untreated control animals. Treatment with compound of formula no. 49 was initiated when the average tumor volumes, as measured using a vernier caliper, were […]. Compound of formula no. 49 was administered intravenously to the assigned group of tumor bearing animals at a dose of 0.5 mg/100 µL once a day and the treatment was continued for a period of 14 days.
The antitumor activity of the compound was monitored by measuring tumor volumes every fourth day using the formula W*W*L*0.4 (W = smaller diameter, L = larger diameter). The percentage inhibition of tumor growth was calculated using the formula (1- tumor volume-treated / tumor volume-control) * 100. […] Compound of formula no. […] The percentage inhibition of tumor growth caused compound of formula no. 49 as compared to controls on day 23 was 45.8%.

| SMILES | IC50 (tubulin) [µM] | ED50 (ug/ml) PTC (PTC) [µg/mL] | ED50 (ug/ml) ECV 304 (ECV 304) [µg/mL] | ED50 (ug/ml) MiaPaca (MIAPaCa2) [µg/mL] | ED50 (ug/ml) DU145 (DU145) [µg/mL] | ED50 (ug/ml) 293 293 [µg/mL] | ED50 (ug/ml) L132 (L132) [µg/mL] | ED50 (ug/ml) SW620 (SW620; SW620 (colon)) [µg/mL] | ED50 (ug/ml) HuTu80 (HuTu80) [µg/mL] | ED50 (ug/ml) KB (KB) [µg/mL] | ED50 (ug/ml) Hep2 (Hep2) [µg/mL] | Percent Reduction in VEGF (VEGF) [%] | Percent Induction of Caspase-3 6 hours (Caspase-3) [%] | Percent Induction of Caspase-3 16 hours (Caspase-3) [%] | ED50 (ug/ml) MOLT4 (MOLT-4) [µg/mL] | ED50 (ug/ml) SW620 (SW620; SW620 (ovary)) [µg/mL] | ED50 (ug/ml) PA1 (PA-1) [µg/mL] | percentage inhibition of tumor growth (PTC tumor xenografts) [%] |
| --- | --- | --- | --- | --- | --- | --- | --- | --- | --- | --- | --- | --- | --- | --- | --- | --- | --- | --- |
| COc1ccc(C2=C(c3cc(OC)c(OC)c(OC)c3)/C(=N\O)C(O)C2)cc1F (stereo not drawn) [Compound 66] | 2 ± 0.6 | 27 ± 3.5 (≈ 66.9 µM) | 43 ± 4.5 (≈ 107 µM) | 94 ± 10.0 (≈ 233 µM) | 10 ± 5.1 (≈ 24.8 µM) | >100 | <1 | <1 | 9 ± 3.1 (≈ 22.3 µM) | <1 | <1 | 12.9 ± 2.9 | 17.0 ± 1.0 | 22.1 ± 0.6 |  |  |  |  |
| COc1ccc(C2=C(c3cc(OC)c(OC)c(OC)c3)C(=NO)C(O)C2)cc1 (stereo not drawn) [Compound 49] | 2.3 ± 0.5 | <1.0 | >100 | 24 ± 3.5 (≈ 62.3 µM) | >100 |  | < 1.0 |  |  | <1.0 | <1.0 | 38.6 ± 1.9 | 26.7 ± 2.8 | 31.9 ± 3.2 | <1.0 | <1.0 | <1.0 | 45.8 |
| COc1ccc(C2=C(c3cc(OC)c(OC)c(OC)c3)C(=O)CC2O)cc1O (stereo not drawn) [Compound 39] | 1.4 ± 0.6 | 78 ± 4.0 (≈ 202 µM) | >100 | >100 | 8 ± 1.5 (≈ 20.7 µM) | >100 | <1 | <1 | 1.5 ± 0.1 (≈ 3.88 µM) | <1 | <1 | 21.9 ± 1.5 | 12.8 ± 0.2 | 17.0 ± 1.5 | 62.5 ± 5.0 (≈ 162 µM) |  | <1 |  |
